Test results taken from US20190307776A1, “AZA-S[…] HUMAN IMMUNODEFICIENCY VIRUS REPLICATION” (priority 2016, published 2019).

System: recombinant NL4-3 virus
Assay: HIV cell culture assay
Format: cell-based
Settings: Human immunodeficiency virus 1, NL43, MT2
Protocol: HIV cell culture assay—MT-2 cells and 293T cells were obtained from the NIH AIDS Research and Reference Reagent Program. MT-2 cells were propagated in RPMI 1640 media supplemented with 10% heat inactivated fetal bovine serum, 100 […]. The 293T cells were propagated in DMEM media supplemented with 10% heat inactivated fetal bovine serum (FBS), 100 units/ml penicillin G and 100 μg/ml streptomycin. The proviral DNA clone of NL4-3 was obtained from the NIH AIDS Research and Reference Reagent Program. A recombinant NL4-3 virus, in which a section of the nef gene from NL4-3 was replaced with the Renilla luciferase gene, was used as a reference virus. In addition, residue Gag P373 was converted to P373S. Briefly, the recombinant virus was prepared by transfection of the altered proviral clone of NL4-3. Transfections were performed in 293T cells using LipofectAMINE PLUS from Invitrogen (Carlsbad, Calif.), according to manufacturer's instruction. The virus was titered in MT-2 cells using luciferase enzyme activity as a marker. Luciferase was quantitated using the Dual Luciferase kit from Promega (Madison, Wis.), with modifications to the manufacturer's protocol. The diluted Passive Lysis solution was pre-mixed with the re-suspended Luciferase Assay Reagent and the re-suspended Stop & Glo Substrate (2:1:1 ratio). Fifty (50) μL of the mixture was added to each aspirated well on assay plates and luciferase activity was measured immediately on a Wallac TriLux (Perkin-Elmer). Antiviral activities of inhibitors toward the recombinant virus were quantified by measuring luciferase activity in cells infected for 4-5 days with NLRluc recombinants in the presence serial dilutions of the inhibitor.

Compound | EC50 [nM]
C=C(C)[C@@H]1CC[C@]2(CNCCCN3CCS(=O)(=O)CC3)CC[C@]3(C)[C@H](CC[C@@H]4[C@@]5(C)CCN(c6ccc(C#N)nc6)C(C)(C)[C@@H]5CC[C@]43C)[C@@H]12 [Example 43, 5-((4aR,6aR,6bR,8aS,11R,11aR,11bR,13aR,13bR)-8a-(((3-(1,1-dioxidothiomorpholino)propyl)amino)methyl)-4,4,6a,6b,13b-pentamethyl-11-(prop-1-en-2-yl)hexadecahydro-1H-cyclopenta[5,6]naphtho[2,1-f]isoquinolin-3(2H,4H,13bH)-yl)picolinonitrile] | 280
C=C(C)[C@@H]1CC[C@]2(CNCCCN3CCS(=O)(=O)CC3)CC[C@]3(C)[C@H](CC[C@@H]4[C@@]5(C)CCN(c6ccc(C(=O)O)nc6)C(C)(C)[C@@H]5CC[C@]43C)[C@@H]12 [Example 44, 5-((4aR,6aR,6bR,8aS,11R,11aR,11bR,13aR,13bR)-8a-(((3-(1,1-dioxidothiomorpholino)propyl)amino)methyl)-4,4,6a,6b,13b-pentamethyl-11-(prop-1-en-2-yl)hexadecahydro-1H-cyclopenta[5,6]naphtho[2,1-f]isoquinolin-3(2H,4H,13bH)-yl)picolinic acid] | 7
C=C(C)[C@@H]1CC[C@]2(CO)CC[C@]3(C)[C@H](CC[C@@H]4[C@@]5(C)CCN(C(=O)CCCC(=O)O)C(C)(C)C5CC[C@]43C)[C@@H]12 (stereo partly drawn) [Example 8, 5-((6aR,6bR,8aS,11R,11aR,11bR,13aR,13bR)-8a-(hydroxymethyl)-4,4,6a,6b,13b-pentamethyl-11-(prop-1-en-2-yl)icosahydro-3H-cyclopenta[5,6]naphtho[2,1-f]isoquinolin-3-yl)-5-oxopentanoic acid] | 1810
C=C(C)[C@@H]1CC[C@]2(CO)CC[C@]3(C)[C@H](CC[C@@H]4[C@@]5(C)CCN(C(=O)CCC(=O)O)C(C)(C)C5CC[C@]43C)[C@@H]12 (stereo partly drawn) [Example 9, 4-((6aR,6bR,8aS,11R,11aR,11bR,13aR,13bR)-8a-(hydroxymethyl)-4,4,6a,6b,13b-pentamethyl-11-(prop-1-en-2-yl)icosahydro-3H-cyclopenta[5,6]naphtho[2,1-f]isoquinolin-3-yl)-4-oxobutanoic acid] | 2760
C=C(C)[C@@H]1CC[C@]2(CO)CC[C@]3(C)[C@H](CC[C@@H]4[C@@]5(C)CCN(C(=O)c6ccc(C(=O)O)cc6)C(C)(C)C5CC[C@]43C)[C@@H]12 (stereo partly drawn) [Example 10, 4-((6aR,6bR,8aS,11R,11aR,11bR,13aR,13bR)-8a-(hydroxymethyl)-4,4,6a,6b,13b-pentamethyl-11-(prop-1-en-2-yl)icosahydro-1H-cyclopenta[5,6]naphtho[2,1-f]isoquinoline-3-carbonyl)benzoic acid] | 320
C=C(C)[C@@H]1CC[C@]2(CNCCCN3CCS(=O)(=O)CC3)CC[C@]3(C)[C@H](CC[C@@H]4[C@@]5(C)CCN(c6ccc(C(N)=O)cn6)C(C)(C)[C@@H]5CC[C@]43C)[C@@H]12 [Example 41, 6-((4aR,6aR,6bR,8aS,11R,11aR,11bR,13aR,13bR)-8a-(((3-(1,1-dioxidothiomorpholino)propyl)amino)methyl)-4,4,6a,6b,13b-pentamethyl-11-(prop-1-en-2-yl)hexadecahydro-1H-cyclopenta[5,6]naphtho[2,1-f]isoquinolin-3(2H,4H,13bH)-yl)nicotinamide] | 400
C=C(C)[C@@H]1CC[C@]2(CNCCCN3CCS(=O)(=O)CC3)CC[C@]3(C)[C@H](CC[C@@H]4[C@@]5(C)CCN(c6ccc(C(=O)O)cn6)C(C)(C)[C@@H]5CC[C@]43C)[C@@H]12 [Example 42, 6-((4aR,6aR,6bR,8aS,11R,11aR,11bR,13aR,13bR)-8a-(((3-(1,1-dioxidothiomorpholino)propyl)amino)methyl)-4,4,6a,6b,13b-pentamethyl-11-(prop-1-en-2-yl)hexadecahydro-1H-cyclopenta[5,6]naphtho[2,1-f]isoquinolin-3(2H,4H,13bH)-yl)nicotinic acid] | 3
C=C(C)[C@@H]1CC[C@]2(CO)CC[C@]3(C)[C@H](CC[C@@H]4[C@@]5(C)CCCN(C(=O)c6cccc(C(=O)O)c6)C(C)(C)C5CC[C@]43C)[C@@H]12 (stereo partly drawn) [Example 2, 3-((7aR,7bR,9aS,12R,12aR,12bR,14aR,14bR)-9a-(hydroxymethyl)-5,5,7a,7b,14b-pentamethyl-12-(prop-1-en-2-yl)docosahydrocyclopenta[7,8]phenanthro[2,1-c]azepine-4-carbonyl)benzoic acid] | > 8000
C=C(C)[C@@H]1CC[C@]2(CNCCCN3CCS(=O)(=O)CC3)CC[C@]3(C)[C@H](CC[C@@H]4[C@@]5(C)CCN(C(=O)CC(C)(C)CC(=O)O)C(C)(C)[C@@H]5CC[C@]43C)[C@@H]12 [Example 24, 5-((4aR,6aR,6bR,8aS,11R,11aR,11bR,13aR,13bR)-8a-(((3-(1,1-dioxidothiomorpholino)propyl)amino)methyl)-4,4,6a,6b,13b-pentamethyl-11-(prop-1-en-2-yl)icosahydro-3H-cyclopenta[5,6]naphtho[2,1-f]isoquinolin-3-yl)-3,3-dimethyl-5-oxopentanoic acid] | 120
C=C(C)[C@@H]1CC[C@]2(CO)CC[C@]3(C)[C@H](CC[C@@H]4[C@@]5(C)CCCN(S(=O)(=O)c6ccc(/C=C/C(=O)O)cc6)C(C)(C)C5CC[C@]43C)[C@@H]12 (stereo partly drawn) [Example 12, (E)-3-(4-(((7aR,7bR,9aS,12R,12aR,12bR,14aR,14bR)-9a-(hydroxymethyl)-5,5,7a,7b,14b-pentamethyl-12-(prop-1-en-2-yl)icosahydrocyclopenta[7,8]phenanthro[2,1-c]azepin-4(1H)-yl)sulfonyl)phenyl)acrylic acid] | > 8000
C=C(C)[C@@H]1CC[C@]2(CNCCCN3CCS(=O)(=O)CC3)CC[C@]3(C)[C@H](CC[C@@H]4[C@@]5(C)CCN(c6ncc(C(=O)O)s6)C(C)(C)[C@@H]5CC[C@]43C)[C@@H]12 [Example 56, 2-((4aR,6aR,6bR,8aS,11R,11aR,11bR,13aR,13bR)-8a-(((3-(1,1-dioxidothiomorpholino)propyl)amino)methyl)-4,4,6a,6b,13b-pentamethyl-11-(prop-1-en-2-yl)hexadecahydro-1H-cyclopenta[5,6]naphtho[2,1-f]isoquinolin-3(2H,4H,13bH)-yl)thiazole-5-carboxylic acid] | 4
C=C(C)[C@@H]1CC[C@]2(C(=O)O)CC[C@]3(C)[C@H](CC[C@@H]4[C@@]5(C)CC(=O)N(c6ccc(C(=O)O)cc6)C(C)(C)[C@@H]5CC[C@]43C)[C@@H]12 [Example 22, (4aR,6aR,6bR,8aS,11R,11aR,11bR,13aR,13bR)-3-(4-carboxyphenyl)-4,4,6a,6b,13b-pentamethyl-2-oxo-11-(prop-1-en-2-yl)icosahydro-8aH-cyclopenta[5,6]naphtho[2,1-f]isoquinoline-8a-carboxylic acid] | > 3000
